Here are results for 54 compounds from PubChem BioAssay AID1259246 (Broad Institute, 2017).

SMILES strings stand for the structures. Several values for one entry are separate records, joined by “and”; a condition that tells them apart may be missing. Equal entries are not always repeated. Records with an inconclusive call do not appear. Activity calls are given as the source filed them.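 The calls were made as follows: active = valid dose-response fit whose half-maximal growth-inhibiting concentration is at or below a set limit above the top tested dose; inconclusive = flat fit with effect between 30 and 70%, or poor fit; inactive = half-maximal concentration above a set limit.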

A short description of the first assay: antibacterial activity against Clostridioides difficile – 10-point retest, dose response (AID 1259246). Conditions: Clostridioides difficile clinical isolate growth, OD600, 24 h; at 60 µM (top of the series).
Regarding `O=C(C[C@@H]1C[C@H]2c3cc(NC(=O)C4CCC4)ccc3O[C@H]2[C@H](CO)O1)NCc1ccc(Cl)cc1`, the activity change, negative = inhibition was -4.77% (inactive).

As to `CNC[C@@H]1Oc2ccc(N)cc2CC(=O)N([C@H](C)CO)C[C@H]1C`, the activity change, negative = inhibition was 0.918% (inactive).

Still in this assay, the particulars now being: Clostridioides difficile clinical isolate growth, OD600, 24 h; at 120 µM (top of the series).
In the case of `CNC[C@H]1Oc2c(N)cccc2C(=O)N([C@@H](C)CO)C[C@H]1C`, the activity change, negative = inhibition is -0.016% (inactive). As for `CO[C@@H]1CN(C)C(=O)c2ccc(NC(=O)c3nc4ccccc4s3)cc2OC[C@@H](C)NC[C@H]1C`, the activity change, negative = inhibition was -7.73% (inactive). Same read-out and setting: the figure for `COc1ccccc1C#Cc1ccc([C@H]2[C@@H](CO)N(C(=O)C3CC3)[C@H]2C#N)cc1` is 27.5% (inactive); for `CO[C@H]1CN(C)C(=O)c2cc(NC(=O)c3ccc(-c4ccccc4)cc3)ccc2OC[C@@H](C)NC[C@@H]1C` it is 30.6% (inactive). For the compound `CO[C@H]1CN(C)C(=O)c2cc(NC(=O)c3nc4ccccc4s3)ccc2OC[C@@H](C)N(Cc2ccncc2)C[C@H]1C`, the activity change, negative = inhibition was 5.99% (inactive).

`C[C@@H]1CCCCO[C@H](CN(C)C)[C@H](C)CN([C@H](C)CO)C(=O)c2cc(NC(=O)c3ccncc3)ccc2O1`: the activity change, negative = inhibition is 45.3% (inactive). The same measure, in the same setting: the same measure for `COc1ccc(S(=O)(=O)N(C)C[C@H]2Oc3c(NS(=O)(=O)c4ccccc4)cccc3C(=O)N([C@H](C)CO)C[C@@H]2C)cc1`: 28% (inactive); for `CNC[C@@H]1Oc2ccc(NC(=O)CCCN(C)C)cc2CC(=O)N([C@H](C)CO)C[C@H]1C`: 2.33% (inactive). The same measure, in the same setting: the same measure for `C[C@@H]1CN([C@H](C)CO)C(=O)c2cccc(NC(=O)Nc3ccc(C(F)(F)F)cc3)c2O[C@H]1CN(C)C(=O)NC1CCCCC1`: 28.2% (inactive); for `CO[C@H]1CN(C)C(=O)c2ccc(NC(=O)C3CCC3)cc2OC[C@H](C)N(Cc2ccncc2)C[C@@H]1C`: -5.3% (inactive). Take `O=C(C[C@H]1C[C@H]2c3cc(NS(=O)(=O)c4ccc(F)cc4)ccc3O[C@H]2[C@H](CO)O1)NCc1ccc(-c2ccccc2)cc1`: the activity change, negative = inhibition was 17.8% (inactive). On to `C[C@@H]1CN([C@@H](C)CO)C(=O)Cc2cc(N(C)C)ccc2O[C@@H]1CN(C)Cc1ccc(-c2ccccc2)cc1`, for which the activity change, negative = inhibition was 30.2% (inactive). For the compound `C[C@H]1CCCCO[C@@H](CN(C)S(=O)(=O)c2ccc(F)cc2)[C@@H](C)CN([C@@H](C)CO)C(=O)c2cc(NC(=O)Nc3cccc4ccccc34)ccc2O1`, the activity change, negative = inhibition is 42.1% (inactive). As for `C[C@@H]1CN([C@@H](C)CO)C(=O)c2cccc(NC(=O)Nc3ccc(C(F)(F)F)cc3)c2O[C@H]1CN(C)Cc1ccc(-c2ccccc2)cc1`, the activity change, negative = inhibition is 20.3% (inactive). Still for that read-out and setting: the same measure for `Cc1ccc(S(=O)(=O)N2C[C@@H](O)COC[C@H]3O[C@H](CC(=O)NCc4ccc(Cl)c(Cl)c4)CC[C@@H]32)cc1`: 22.9% (inactive) and 25.2% (inactive) and 97.3% (inactive).

Take `CC(C)CC#Cc1ccc2c(c1)O[C@H](CN(C)CC1CCOCC1)[C@H](C)CN([C@@H](C)CO)S2(=O)=O`: the activity change, negative = inhibition is 15.6% (inactive). The same measure, in the same setting: the figure for `CO[C@H]1CN(C)C(=O)c2ccc(NC(=O)c3nc4ccccc4s3)cc2OC[C@H](C)N(Cc2ccncc2)C[C@H]1C` is 18.4% (inactive); for `C[C@H]1CN([C@@H](C)CO)C(=O)c2cccc(NC(=O)Nc3ccc(C(F)(F)F)cc3)c2O[C@@H]1CN(C)Cc1ccc(-c2ccccc2)cc1` it is 31.9% (inactive); for `C[C@H](CO)N1C[C@H](C)[C@H](CN(C)Cc2ccc(Oc3ccccc3)cc2)Oc2c(NC(=O)Nc3ccccc3)cccc2C1=O` it is 10.9% (inactive). `C[C@@H]1CN([C@@H](C)CO)C(=O)Cc2cc(NC(=O)c3ccncc3)ccc2O[C@@H]1CN(C)S(=O)(=O)c1cn(C)cn1`: the activity change, negative = inhibition is 37.2% (inactive).

With `Cc1ccc(S(=O)(=O)N[C@@H]2CC[C@@H](CCNS(=O)(=O)Cc3ccccc3)O[C@H]2CO)cc1`, the activity change, negative = inhibition was -1.85% (inactive). For the compound `CCCC#Cc1ccc2c(c1)O[C@H](CN(C)Cc1ccc3c(c1)OCO3)[C@H](C)CN([C@@H](C)CO)S2(=O)=O`, the activity change, negative = inhibition was 25.5% (inactive). On the same count and under the same terms, the same measure for `CO[C@H]1CN(C)C(=O)c2ccc(NC(=O)c3nc4ccccc4s3)cc2OC[C@@H](C)N(Cc2ccncc2)C[C@H]1C`: 20.7% (inactive); for `C[C@@H]1CN([C@H](C)CO)C(=O)c2cc(NC(=O)Nc3cccc4ccccc34)ccc2O[C@@H](C)CCCCO[C@H]1CN(C)S(C)(=O)=O`: 1.6% (inactive).

For the compound `COc1ccc(-c2ccc([C@H]3[C@H](C#N)N(C(=O)NC4CCCCC4)[C@H]3CO)cc2)cc1`, the activity change, negative = inhibition was 7.21% (inactive). Regarding `C[C@H](CO)N1C[C@H](C)[C@H](CN(C)S(=O)(=O)c2ccc(F)cc2)OCCCC[C@H](C)Oc2ccc(NC(=O)Nc3cccc4ccccc34)cc2C1=O`, the activity change, negative = inhibition was 34.7% (inactive).

Turning to `O=S(=O)(NCC[C@H]1CC[C@H](NS(=O)(=O)c2ccccc2Cl)[C@H](CO)O1)c1ccc(Cl)cc1`, the activity change, negative = inhibition was -7.26% (inactive).

As to `CO[C@@H]1CN(C)C(=O)c2cc(NC(=O)c3ccc(-c4ccccc4)cc3)ccc2OC[C@H](C)NC[C@@H]1C`, the activity change, negative = inhibition was 31.8% (inactive). For `C[C@H]1CN([C@@H](C)CO)C(=O)c2cccc(NC(=O)Nc3ccc(C(F)(F)F)cc3)c2O[C@@H]1CN(C)Cc1ccc2c(c1)OCO2`, the activity change, negative = inhibition was 34.1% (inactive). As for `CNC[C@H]1OCCCC[C@H](C)Oc2ccc(NC(=O)Nc3cccc4ccccc34)cc2C(=O)N([C@H](C)CO)C[C@@H]1C`, the activity change, negative = inhibition is 11.4% (inactive). As to `C[C@H](CO)N1C[C@H](C)[C@@H](CN(C)Cc2ccc(-c3ccccc3)cc2)Oc2c(NC(=O)Nc3ccc4c(c3)OCO4)cccc2C1=O`, the activity change, negative = inhibition is 2.74% (inactive). On to `C[C@@H]1CN([C@@H](C)CO)S(=O)(=O)c2ccc(/C=C/c3ccccc3)cc2O[C@H]1CN(C)C(=O)c1ccccc1`, for which the activity change, negative = inhibition is 18.9% (inactive). `COc1ccc(NC(=O)Nc2cccc3c2O[C@H](CN(C)Cc2ccc(Oc4ccccc4)cc2)[C@@H](C)CN([C@@H](C)CO)C3=O)cc1`: the activity change, negative = inhibition was 19.2% (inactive). Regarding `C[C@@H]1CN([C@@H](C)CO)C(=O)Cc2cc(NC(=O)C3CC3)ccc2O[C@H]1CN(C)Cc1ccc(-c2ccccc2)cc1`, the activity change, negative = inhibition is 25% (inactive). Take `COc1ccc(CNC(=O)C[C@H]2C[C@@H]3c4cc(NC(=O)NC5CCCC5)ccc4O[C@@H]3[C@@H](CO)O2)cc1`: the activity change, negative = inhibition was 6.58% (inactive).

With `C[C@@H]1CCCCO[C@@H](CN(C)S(=O)(=O)c2ccc(F)cc2)[C@H](C)CN([C@@H](C)CO)C(=O)c2cc(NC(=O)Nc3cccc4ccccc34)ccc2O1`, the activity change, negative = inhibition is 18.9% (inactive). As to `C[C@@H]1CCCCO[C@H](CN(C)C(=O)CCC(F)(F)F)[C@H](C)CN([C@@H](C)CO)C(=O)c2cc(NC(=O)c3ccncc3)ccc2O1`, the activity change, negative = inhibition was 14.3% (inactive). Same read-out and setting: the figure for `C[C@@H]1CN([C@H](C)CO)C(=O)c2cccc(NC(=O)Nc3ccc(C(F)(F)F)cc3)c2O[C@@H]1CN(C)S(=O)(=O)c1ccc(Cl)cc1` is 46.7% (inactive); for `CO[C@@H]1CN(C)C(=O)c2ccc(NC(=O)c3nc4ccccc4s3)cc2OC[C@H](C)N(Cc2ccncc2)C[C@H]1C` it is 7.34% (inactive).

As to `C[C@@H]1CN([C@@H](C)CO)C(=O)Cc2cc(NC(=O)c3ccncc3)ccc2O[C@@H]1CN(C)Cc1ccc(-c2ccccc2)cc1`, the activity change, negative = inhibition was 19.7% (inactive).

In the case of `COc1ccc(NC(=O)Nc2cccc3c2O[C@@H](CN(C)C(=O)NC2CCCCC2)[C@H](C)CN([C@H](C)CO)C3=O)cc1`, the activity change, negative = inhibition was 1.64% (inactive).

Still in this assay, the particulars now being: Clostridioides difficile clinical isolate growth, OD600, 24 h; at 135 µM (top of the series).
On to `COc1ccc(NC(=O)N(C)C[C@@H]2Oc3ccc(NC(=O)CCCN(C)C)cc3CC(=O)N([C@H](C)CO)C[C@H]2C)cc1`, for which the activity change, negative = inhibition is 1.15% (inactive).

Regarding `C[C@@H]1CN([C@H](C)CO)C(=O)Cc2cc(NC(=O)c3ccncc3)ccc2O[C@@H]1CN(C)Cc1ccc(-c2ccccc2)cc1`, the activity change, negative = inhibition was 20.6% (inactive). On to `O=C(C[C@H]1C[C@H]2c3cc(NC(=O)Nc4ccc(F)cc4)ccc3O[C@H]2[C@@H](CO)O1)NC1CCCCC1`, for which the activity change, negative = inhibition was -1.5% (inactive). In the case of `C[C@@H]1CN([C@H](C)CO)C(=O)c2cc(NC(=O)Nc3cccc4ccccc34)ccc2O[C@@H](C)CCCCO[C@H]1CN(C)S(=O)(=O)c1cn(C)cn1`, the activity change, negative = inhibition is 33.1% (inactive). Consider `C[C@H]1CN([C@@H](C)CO)C(=O)Cc2cc(NC(=O)C3CC3)ccc2O[C@H]1CN(C)Cc1ccc(Oc2ccccc2)cc1`, for which the activity change, negative = inhibition is 26.6% (inactive). Take `CNC[C@H]1Oc2c(N)cccc2C(=O)N([C@H](C)CO)C[C@@H]1C`: the activity change, negative = inhibition is -1.95% (inactive). As for `CO[C@@H]1CN(C)C(=O)c2cc(NC(=O)c3ccc(Oc4ccccc4)cc3)ccc2OC[C@H](C)NC[C@H]1C`, the activity change, negative = inhibition was 24.9% (inactive). On to `C[C@@H]1CN([C@@H](C)CO)C(=O)Cc2cc(NC(=O)C3CC3)ccc2O[C@@H]1CN(C)Cc1ccccc1`, for which the activity change, negative = inhibition was 0.355% (inactive). Same read-out and setting: the same measure for `CO[C@H]1CN(C)C(=O)c2cc(NC(=O)c3ccc(-c4ccccc4)cc3)ccc2OC[C@H](C)NC[C@@H]1C`: 34.1% (inactive); for `O=S(=O)(Cc1ccccc1)NCC[C@H]1CC[C@H](NS(=O)(=O)c2ccc(F)cc2)[C@H](CO)O1`: -6.92% (inactive); for `C[C@@H]1CN([C@H](C)CO)C(=O)c2cc(NC(=O)Nc3cccc4ccccc34)ccc2O[C@@H](C)CCCCO[C@H]1CN(C)C(=O)c1ccccc1`: 14.9% (inactive).
